Laboratory results from patent US6613317B1, “Volatile attractants for diabrotica species” (priority 1988, dated 2003).
Marks after values point to notes of the source that are not given here.

Key:
[1] = system: western corn rootworm (WCR) adults; assay: Sticky trap attraction in sweet corn plots (Example 1); format: in vivo, Diabrotica virgifera virgifera; details: for Mean number of WCR per trap (±standard deviation): n = 4
In short: (§1)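 Field trapping in sweet-corn plots beside a Blue Hubbard squash trap crop; lures on mineral-oil-impregnated cotton wicks atop sticky paper-carton traps on 1-m posts, 4 replicates in randomized complete blocks. Beetles counted after 24 h; VIPAE/VIP/TIC mixtures and single components at 1–300 mg per trap, ANOVA/Duncan at P=0.05.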

[2] = system: D. u. howardi adults; format: in vivo, Diabrotica undecimpunctata howardi; details: TEX×PEP bait with 0.1% methomyl alone or with 1% veratrole added
Excerpt: A noncucurbit carrier, 10-mesh corn grits (71% of which passed through a 2-mm screen), was obtained from Illinois Cereal Mills, Paris, Ill. (designated as pesticide carrier grits, 980). This carrier was impregnated with different levels of cucurbitacins by addition of varying amounts of a chloroform extract of AND×MAX fruit containing 0.12% cucurbitacins B and D (Metcalf, et al., Proc. Natl. Acad. Sci. USA, 77:3769-3772 (1980), Metcalf, et al., Environ. Entomol., 11:921-927 (1982)). The cucurbitacin-containing areas were scraped from plates, extracted in anhydrous methanol, centrifuged, and the UV absorption at 210 nm determined by UV spectrophotometry. Content of cucurbitacins was quantified from standard curves of pure cucurbitacins B, D, E and I, and E-glycoside (Metcalf, et al., Proc. Natl. Acad. Sci. USA, 77:3769-3772 (1980), Metcalf, et al., Environ. Entomol., 11:921-927 (1982)).
The various dried, ground, and insecticide-treated baits were given preliminary field evaluation by placing uniform amounts in petri-dish halves (150-mm diameter) that were placed at random on the ground in cucurbit and corn rows heavily infested ith SCR, WCR, and SCB adults. Ten dishes were used for each treatment; the maximum dosage of dried baits used was 300 mg per dish, equivalent to […]. Mortality counts of adult beetles in the dishes were made after 20-40 h.

[3] = system: southern corn rootworm (SCR) adults; assay: Sticky trap attraction in sweet corn plots (Example 1); format: in vivo, Diabrotica undecimpunctata howardi; details: for Mean number of SCR per trap (±standard deviation): n = 4
In short: as §1

[4] = system: northern corn rootworm (NCR); assay: Sticky trap attraction in corn, phenylethanol analogues (Example 6); format: in vivo, Diabrotica barberi; details: 100 mg per trap, four replicates, 24 hour
Procedure: (§2) Test chemicals (purchased from Aldrich Chemical Co.; Milwaukee, Wis.) were applied by capillary micropipettes to cotton dental wicks that were attached to tops of 1.0 liter cylindrical paper cartons covered with TangleTrap™, Grand Rapids, Mich. The trapping techniques used were as previously described in Example 1. Unless otherwise indicated, all treatments were made at a dosage of 100 mg or 100 μL of attractant per trap. Control traps had untreated wicks. Four replicates of treated and untreated traps were positioned randomly 10 meters apart on top of 1 m high posts along the edges of 25-50 ha. fields of hybrid corn (Zea mays), infested with adult NCR, SCR, and WCR beetles. Several experiments detailed in the Tables were made in a 0.4 ha plot of sweet corn (Illini X-tra Sweet).
(§3) Attraction of Diabrotica species adults of the sticky traps was measured by the mean number of beetles caught after 1 day (ca. 24 hours) exposure. The significance of the treatments was determined by analysis of variance and the individual means were separated by Duncan's multiple range test (Statistical Package for the Social Sciences, Nie, et al., 2nd. ed. McGraw-Hill, New York (1975). The data was logarithmically transformed for statistical analysis. Means and standard deviations are presented for the untransformed data. Significance levels were set at P=0.05 for all statistical analyses.

[5] = system: D. v. virgifera; assay: Sticky trap attraction in prairie habitat, Trelease Woods (Example 2); format: in vivo, Diabrotica virgifera virgifera; details: August 11, 1987; 100 mg per trap; n = 4
In short: (§4)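 Lure-dosed cotton wicks (solids in acetone; untreated controls) on TangleTrap-coated cartons atop 1 m posts, four replicates 10 m apart in relict prairie, mid-August over two years. Read-out: mean beetles caught after 24-h; log-transformed ANOVA with Duncan's multiple range test.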

[6] = system: northern corn rootworm (NCR) adults; assay: Sticky trap attraction in corn, estragole analogues (Example 3); format: in vivo, Diabrotica barberi; details: 100 mg per trap, n = 4
Procedure: as §2, with “chemicals” for “chemicals (purchased from Aldrich Chemical Co.; Milwaukee, Wis.)”, “Cinnamyl alcohol, 4-methoxycinnamaldehyde, cinnamyl acetate, and 4-(4′methoxyphenyl)-3-butene-2-one which are solids at ambient temperature were prepared as standard w/v solutions in acetone prior to dosing the cotton wicks. All” for “Unless otherwise indicated, all”
as §3

[7] = system: D. barberi; assay: Sticky trap attraction along hybrid corn, Pomology South Farms (Example 2); format: in vivo, Diabrotica barberi; details: 100 mg per trap, n = 4
Procedure: (§5) The candidate lures in all experiments were purchased commercially and exceeded 98% purity. The test chemicals were applied by capillary micropipettes to cotton dental wicks which were attached to the tops of 1.0 liter cylindrical paper cartons covered with TangleTrap™ (Tanglefoot Co., Grand Rapids, Mich.). The sticky trap techniques used were as described in Example 1. Cinnamyl alcohol and para-methoxycinnamaldehyde, which are solids, were dissolved in glass-distilled acetone prior to dosing the cotton wicks. All treatments were applied at a dosage of 100 mg per trap. 1,2,4-trimethoxybenzene, indole, and trans-cinnamaldehyde were mixed in a ratio of 1:1:1, by weight, immediately prior to dosing the cotton wicks. Control traps had untreated cotton wicks. Four replicates of treated and untreated traps were randomly positioned 10 meters apart on top of 1 m high posts along the border of a eight foot wide strip cut through the middle of a 4.05 ha relict prairie at Trelease Woods (ca. two miles northeast of Urbana, Ill.). The field consisted primarily of Andropogon gerardii Vitman (big bluestem) and a variety of composites. The tests were conducted in mid-August of two years and were timed to coincide with the presence of D. cristata and D. barberi adults in the flower heads of Canada thistle (Carduus arvensis Robson). In the second year, several new attractants of D. v. virgifera and D. barberi were tested in Trelease Woods and along the edge of a 0.8 ha field of hybrid corn located at the Pomology South Farms, Urbana, Ill. Attraction of Diabrotica species to the various lures was measured by the mean number of beetles caught after 24-h. On one date in late August of the first year, D. cristata and D. barberi were removed from the traps and sexed in the laboratory. The significance of treatments in all tests was determined by an analysis of variance and the individual means were separated by Duncan's multiple range test (Statistical Package for Social Science, Nie, et al., SPSS: statistical package for the social sciences, 2nd ed. McGraw-Hill, New York (1975). Data were logarithmically transformed for statistical analysis and the means and standard deviations are presented for the untransformed data.

[8] = system: D. cristata; assay: Sticky trap attraction in prairie habitat, Trelease Woods (Example 2); format: in vivo, Diabrotica cristata; details: August 11, 1987; 100 mg per trap; n = 4
In short: as §4

[9] = system: southern corn rootworm (SCR) adults; assay: Sticky trap attraction in corn, estragole analogues (Example 3); format: in vivo, Diabrotica undecimpunctata howardi; details: 100 mg per trap, n = 4
In short: (§6)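 Cotton wicks dosed with 100 mg or 100 μL attractant per trap on TangleTrap-coated cartons, four replicates 10 m apart on 1 m posts at field edges of hybrid or sweet corn. Mean beetles caught after ~24 h; log-transformed ANOVA with Duncan's test, P=0.05.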

[10] = system: D. u. howardi; assay: Sticky trap attraction in prairie habitat, Trelease Woods (Example 2); format: in vivo, Diabrotica undecimpunctata howardi; details: August 11, 1987; 100 mg per trap; n = 4
In short: as §4

[11] = system: D. barberi; assay: as above; format: in vivo, Diabrotica barberi; details: August 11, 1987; 100 mg per trap; n = 4
In short: as §4

[12] = system: D. v. virgifera; assay: Sticky trap attraction along hybrid corn, Pomology South Farms (Example 2); format: in vivo, Diabrotica virgifera virgifera; details: 100 mg per trap, n = 4
Procedure: as §5

[13] = system: D. u. howardi; assay: as above; format: in vivo, Diabrotica undecimpunctata howardi; details: 100 mg per trap, n = 4
Procedure: as §5

[14] = system: western corn rootworm (WCR) adults; assay: Sticky trap attraction in corn, estragole analogues (Example 3); format: in vivo, Diabrotica virgifera virgifera; details: for Mean number of WCR adults per sticky trap (±standard deviation) after 24 hours / Mean number of WCR (±standard deviation) per sticky trap after 24 hours: 100 mg per trap, n = 4
In short: as §6

[15] = system: western corn rootworm (WCR); assay: Sticky trap attraction in corn, phenylethanol analogues (Example 6); format: in vivo, Diabrotica virgifera virgifera; details: 100 mg per trap, four replicates, 24 hour
Procedure: as §2, §3

[16] = system: WCR; details: in vivo; cited from earlier work
[17] = August 4, second year, each compound 20 mg per trap
[18] = August 7, second year, each compound 20 mg per trap
[19] = August first year, South Farms, 24 h, single compounds 100 mg per trap, mixture 20 mg of each component
[20] = August first year, single compounds 100 mg per trap, mixture 20 mg each component

With `COc1ccccc1OC` [Veratrole, 1,2-dimethoxybenzene] the “relative percent activity (WCR) as compared with the highest mean value for the test date” value [1, 17] was 39%, the “Mean number of WCR per trap (±standard deviation)” value [1, 17] was 20.0 ± 5.7 per trap and the “relative percent activity (WCR) as compared with the highest mean value for the test date” value [1, 18] was 59%. The “Mean number of WCR per trap (±standard deviation)” value [1, 18] was 18.5 ± 7.2 per trap, the “Mean number of WCR per trap (±standard deviation)” value [1, 19] was 1.5 ± 1.0 per trap and the “relative percent activity of the mean WCR trap catch as compared with the highest mean value in the column” value [1, 20] was 22%. For the same compound, the “mean (±SD) dead SCR beetles for 10 dishes” value [2] was 63.1±39.9, the “relative percent activity (SCR) as compared with the highest mean value for the test date” value [3, 17] was 15% and the “Mean number of SCR per trap (±standard deviation)” value [3, 17] was 5.8 ± 3.4 per trap. For the same compound, the “relative percent activity (SCR) as compared with the highest mean value for the test date” value [3, 18] was 20%, the “Mean number of SCR per trap (±standard deviation)” value [3, 18] was 8.8 ± 2.l and the “Mean number of SCR per trap (±standard deviation)” value [3, 19] was 6.8 ± 3.6 per trap. The “relative percent activity of the mean SCR trap catch as compared with the highest mean value in the column” value [3, 20] was 33%.

In the case of `COc1ccc(C=CC=O)cc1` [XI, 4-methoxycinnamaldehyde], the “Mean number of NCR per trap (± standard deviation)” value ([4]; Table 15) is reported as 6.4 ± 4.9a per trap, the “Mean number of NCR per trap (± standard deviation)” value ([4]; Table 17) is reported as 2.5 ± 1.9a per trap and the “Mean number of D. v. virgifera per day (±standard deviation)” value [5] is reported as 8.5 ± 5.3^b per day. For the same compound, the “Mean number of NCR (±standard deviation) per sticky trap after 24 hours” value ([6]; August 7 (Table 11)) was 0.0^a per sticky trap, the “Mean number of NCR (±standard deviation) per sticky trap after 24 hours” value ([6]; August 18 (Table 11)) was 1.0 ± 0.8^a per sticky trap and the “Mean number of D. barberi per stick trap per day (±standard deviation) in corn” value ([7]; August 7) was 0.3 ± 0.5^a per stick trap per day. The “Mean number of D. barberi per stick trap per day (±standard deviation) in corn” value ([7]; August 18) was 1.0 ± 0.8^a per stick trap per day, the “Mean number of D. cristata per day (±standard deviation)” value [8] was 11.0 ± 6.7^b per day and the “Mean number of SCR adults per sticky trap (±standard deviation) after 24 hours” value ([9]; August 4 second year) was 9.0 ± 6.5^b per sticky trap. For the same compound, the “Mean number of SCR adults per sticky trap (±standard deviation) after 24 hours” value ([9]; August 5 first year) was 42.7 ± 27.6^b per sticky trap, the “Mean number of SCR (±standard deviation) per sticky trap after 24 hours” value ([9]; August 7 (Table 11)) was 1.5 ± 2.4^a per sticky trap and the “Mean number of SCR (±standard deviation) per sticky trap after 24 hours” value ([9]; August 18 (Table 11)) was 0.0^a per sticky trap. For the same compound, the “Mean number of SCR adults per sticky trap (±standard deviation) after 24 hours” value ([9]; September 11) was 1.5 ± 1.3^ab per sticky trap, the “Mean number of D. u. howardi per day (±standard deviation)” value [10] was 0.3 ± 0.5^a per day and the “Mean number of D. barberi per day (±standard deviation)” value [11] was 1.0 ± 0.8^a per day. The “Mean number of D. v. virgifera per stick trap per day (±standard deviation) in corn” value ([12]; August 7) was 375.0 ± 50.0^d per stick trap per day, the “Mean number of D. v. virgifera per stick trap per day (±standard deviation) in corn” value ([12]; August 18) was 178.8 ± 32.0^c per stick trap per day and the “Mean number of D. u. howardi per stick trap per day (±standard deviation) in corn” value ([13]; August 7) was 1.5 ± 2.4^a per stick trap per day. The “Mean number of D. u. howardi per stick trap per day (±standard deviation) in corn” value ([13]; August 18) was 0.0^a per stick trap per day, the “period over which treated wicks remained highly attractive to WCR” value ([14]; 100 mg on wick, transferred daily to fresh traps, August sunlight, two heavy rainstorms) was ≥ 16 days and the “Mean number of WCR adults per sticky trap (±standard deviation) after 24 hours” value ([14]; August 4 second year) was 204.7 ± 34.6^e per sticky trap. For the same compound, the “Mean number of WCR adults per sticky trap (±standard deviation) after 24 hours” value ([14]; August 5 first year) was 143.7 ± 75.3^e per sticky trap, the “Mean number of WCR (±standard deviation) per sticky trap after 24 hours” value ([14]; August 7 (Table 11)) was 375.0 ± 50.0^c per sticky trap and the “Mean number of WCR (±standard deviation) per sticky trap after 24 hours” value ([14]; August 18 (Table 11)) was 178.7 ± 31.9^b per sticky trap. The “Mean number of WCR adults per sticky trap (±standard deviation) after 24 hours” value ([14]; September 11) was 22.2 ± 23.1^b per sticky trap, the “effectiveness relative to previously described WCR attractants (indole, estragole)” value ([14]; by LR) was “about 100 fold” and the “limit of response (LR) for attraction of WCR adults in corn” value ([14]; on cotton wicks, logarithmically decreasing amounts) was ~0.03 mg. The “Mean number of WCR per trap (±standard deviation)” value ([15]; Table 15) was 567.5 ± 111.6b per trap, the “Mean number of WCR per trap (± standard deviation), column WCW” value ([15]; Table 17) was 360.2 ± 181.3c per trap and the “LR for WCR, most effective volatile attractants yet identified” value [16] was 0.03 mg.
